Source: paper PMC2725291, “Genetic and Molecular Basis of Individual Differences in Human Umami Taste Perception” (PLoS ONE, 2009)

How the values were obtained:
[1] = target: T1, TAS1R1-12H-372A/TAS1R3 -757R (Homo sapiens, UniProt Q7RTX0+Q7RTX1, C757R/Q12H); assay: Ca2+ imaging in HEK293 cells, Q12H amino acid substitution of TAS1R1; type: cell-based; settings: vs. TAS1R1-12Q-372A/TAS1R3-757R; Figure S3
T1 construct: expressed in transfected cells; host or cells: HEK293
T1 sequence (Q7RTX1 21-841): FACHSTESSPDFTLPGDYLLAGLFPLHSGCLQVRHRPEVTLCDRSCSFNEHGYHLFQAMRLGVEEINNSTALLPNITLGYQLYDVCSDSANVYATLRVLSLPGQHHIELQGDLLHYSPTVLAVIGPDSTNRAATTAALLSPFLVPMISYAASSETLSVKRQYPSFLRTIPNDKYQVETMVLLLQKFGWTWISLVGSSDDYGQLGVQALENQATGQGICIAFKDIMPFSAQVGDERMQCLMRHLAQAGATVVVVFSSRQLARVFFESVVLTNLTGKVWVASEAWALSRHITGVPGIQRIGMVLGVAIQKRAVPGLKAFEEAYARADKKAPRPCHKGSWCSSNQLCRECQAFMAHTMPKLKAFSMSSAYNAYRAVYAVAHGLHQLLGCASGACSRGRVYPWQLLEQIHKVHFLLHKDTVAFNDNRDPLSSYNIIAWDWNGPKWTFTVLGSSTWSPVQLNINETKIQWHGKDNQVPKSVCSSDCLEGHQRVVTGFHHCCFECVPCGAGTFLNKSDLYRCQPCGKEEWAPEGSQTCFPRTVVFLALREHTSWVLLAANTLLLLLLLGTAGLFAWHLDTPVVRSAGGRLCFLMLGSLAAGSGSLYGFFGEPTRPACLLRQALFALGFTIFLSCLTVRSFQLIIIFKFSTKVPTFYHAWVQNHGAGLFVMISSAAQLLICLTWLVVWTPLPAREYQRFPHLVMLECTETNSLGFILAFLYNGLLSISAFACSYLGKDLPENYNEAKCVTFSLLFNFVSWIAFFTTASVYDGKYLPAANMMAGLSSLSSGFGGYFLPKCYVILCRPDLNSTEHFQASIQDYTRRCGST
T1 sequence (Q7RTX0 21-852 C757R): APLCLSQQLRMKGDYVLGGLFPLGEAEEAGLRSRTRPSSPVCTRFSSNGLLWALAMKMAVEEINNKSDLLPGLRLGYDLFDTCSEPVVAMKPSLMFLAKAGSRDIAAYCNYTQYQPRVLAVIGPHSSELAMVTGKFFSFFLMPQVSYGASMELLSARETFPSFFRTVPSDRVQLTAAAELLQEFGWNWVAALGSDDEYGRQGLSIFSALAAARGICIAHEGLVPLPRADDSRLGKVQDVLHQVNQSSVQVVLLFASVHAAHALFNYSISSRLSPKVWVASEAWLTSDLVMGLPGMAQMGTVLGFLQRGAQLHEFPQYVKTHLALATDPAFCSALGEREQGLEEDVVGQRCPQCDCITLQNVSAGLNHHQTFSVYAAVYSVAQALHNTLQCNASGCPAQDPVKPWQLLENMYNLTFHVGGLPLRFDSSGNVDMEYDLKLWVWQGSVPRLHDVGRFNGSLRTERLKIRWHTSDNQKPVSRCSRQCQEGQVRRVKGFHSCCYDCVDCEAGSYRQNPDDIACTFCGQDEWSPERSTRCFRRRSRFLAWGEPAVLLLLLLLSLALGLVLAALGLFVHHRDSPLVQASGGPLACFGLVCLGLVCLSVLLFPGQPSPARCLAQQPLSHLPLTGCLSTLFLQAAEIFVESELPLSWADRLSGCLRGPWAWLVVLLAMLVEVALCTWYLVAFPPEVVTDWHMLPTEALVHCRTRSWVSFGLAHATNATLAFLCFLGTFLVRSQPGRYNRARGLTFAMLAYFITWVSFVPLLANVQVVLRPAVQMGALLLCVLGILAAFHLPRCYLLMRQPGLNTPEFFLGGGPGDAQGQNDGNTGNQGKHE
Excerpt: Intronless human TAS1Rs and Gαl6 expression constructs were generated in the pEF-DEST51 Gateway vector (Invitrogen) by genomic DNA-based methods. To subclone each gene into the vector, a Kozak cassette was introduced at the 5′ end before the start codon. Gαl6 chimeras were generated by PCR with mutagenic primers. The carboxyl-terminal tail of Gαl6, five-residue (EINLL) was replaced by its counterpart from Gαi3 (ECGLY; Gα16-i3), Gαgust (DCGLF; Gα16-gust), and Gα16-gust44 was generated as described. The integrity of all DNA constructs was confirmed by DNA sequencing. Point mutations in TAS1Rs were made using the same overlapping PCR strategy with mutagenic primers. […]
HEK293 cells were cultured at 37°C under a humidified atmosphere containing 5% CO2 in Dulbecco's modified Eagle's medium supplemented with 10% fetal bovine serum. […] The transfection efficiencies were estimated by visualizing DsRed fluorescence (data not shown) or by immunocytochemistry of TAS1R3, and were typically 50∼55% (Figure S4). […]
Another imaging system, FlexStation II (Molecular Devices) was used for TAS1R mutant analysis. […] Fluorescence changes (excitation at 485 nm, emission at 525 nm, and cutoff at 515 nm) were monitored at 2 sec intervals; 50 µl of HBSS supplemented with 2×tastants were added at 30 sec, and scanning was continued for an additional 120 sec. […]

254 Japanese subjects = tested on: 254 Japanese subjects; parameters: method as in PMID 11839608; settings: humans; cited from earlier work

## N[C@@H](CCC(=O)O)C(=O)[O-].[Na+] [MSG, monosodium glutamate]
[1]
  effect of the Q12H amino acid mutation of TAS1R1 on responses: did not affect
254 Japanese subjects
  difference of taste thresholds between taster and hypotaster groups: about 5 fold
